Measurements published in patent publication US11564394B2, “Distorted gold (I)-phosphine complexes and methods for use as antifungal agents” (University of Kentucky Research Foundation, priority 2019, dated 2023).

Assays:
[1] = system: C. albicans ATCC MYA-1003(R) (strain A); assay type: cell-based, Candida albicans; settings: strain A = C. albicans ATCC MYA-1003(R); MIC-0; 48 h at 35° C.
[2] = system: C. albicans ATCC 10231(R) (strain B); assay type: cell-based, Candida albicans
[3] = system: C. albicans ATCC MYA-1237(R) (strain C); assay type: cell-based, Candida albicans; settings: strain C = C. albicans ATCC MYA-1237(R); MIC-0; 48 h; listed as printed beside letter D
[4] = system: C. albicans ATCC MYA-2310(S) (strain D); test: MIC determination (broth microdilution); assay type: cell-based, Candida albicans; settings: strain D = C. albicans ATCC MYA-2310(S); MIC-0; 48 h; listed as printed beside letter E
[5] = system: C. albicans ATCC MYA-2876(S) (strain E); test: MIC determination (broth microdilution); assay type: cell-based, Candida albicans; settings: strain E = C. albicans ATCC MYA-2876(S); MIC-0; 48 h; listed as printed beside letter F
[6] = system: C. albicans ATCC 64124(R) (strain F); assay type: cell-based, Candida albicans; settings: strain F = C. albicans ATCC 64124(R); MIC-0; 48 h; listed as printed beside letter G
[7] = system: C. albicans ATCC 90819(R) (strain G); assay type: cell-based, Candida albicans; settings: strain G = C. albicans ATCC 90819(R); MIC-0; 48 h; listed as printed without letter, below G
[8] = system: C. glabrata ATCC 2001 (strain H); test: MIC determination (broth microdilution); assay type: cell-based, Candida glabrata; settings: strain H = C. glabrata ATCC 2001; MIC-0; 48 h at 35° C.
[9] = system: C. krusei ATCC 6258 (strain I); test: MIC determination (broth microdilution); assay type: cell-based; settings: strain I = C. krusei ATCC 6258; MIC-0; 48 h; listed as split over r16 and r17 (r17 printed beside letter J)
[10] = system: C. parapsilosis ATCC 22019 (strain J); test: MIC determination (broth microdilution); assay type: cell-based; settings: strain J = C. parapsilosis ATCC 22019; MIC-0; 48 h; listed as printed beside letter K
[11] = system: C. auris AR Bank # 0384 (strain K); test: MIC determination (broth microdilution); assay type: cell-based, Candida auris; settings: strain K = C. auris AR Bank # 0384; MIC-0; 48 h (CAS read at 24 h); Table 1; also in Table 2
[12] = system: C. auris AR Bank # 0390 (strain L); test: MIC determination (broth microdilution); assay type: cell-based, Candida auris; settings: strain L = C. auris AR Bank # 0390; MIC-0; 48 h (CAS read at 24 h); Table 1 row printed without letter, below L; also in Table 2
[13] = system: C. neoformans ATCC MYA-85 (strain M); test: MIC determination (broth microdilution); assay type: cell-based, Cryptococcus neoformans; settings: strain M = C. neoformans ATCC MYA-85; MIC-0; 72 h at 35° C.
[14] = system: C. neoformans CN1 (strain N); test: MIC determination (broth microdilution); assay type: cell-based, Cryptococcus neoformans; settings: MIC-0, 72 h at 35° C.
[15] = system: C. neoformans CN2 (strain O); test: MIC determination (broth microdilution); assay type: cell-based, Cryptococcus neoformans; settings: MIC-0, 72 h at 35° C.
[16] = system: C. neoformans CN3 (strain P); test: MIC determination (broth microdilution); assay type: cell-based, Cryptococcus neoformans; settings: MIC-0, 72 h at 35° C.
[17] = system: A. nidulans ATCC 38163 (strain Q); test: MIC determination (broth microdilution); assay type: cell-based, Aspergillus nidulans; settings: strain Q = A. nidulans ATCC 38163; MIC-0; 72 h at 35° C.
[18] = system: A. terreus ATCC MYA-3633 (strain R); assay type: cell-based, Aspergillus terreus; settings: strain R = A. terreus ATCC MYA-3633; MIC-0; 72 h at 35° C.
[19] = system: A. flavus ATCC MYA-3631 (strain S); test: MIC determination (broth microdilution); assay type: cell-based, Aspergillus flavus; settings: strain S = A. flavus ATCC MYA-3631; MIC-0; 72 h at 35° C.
[20] = system: F. graminearum 053 (strain T); assay type: cell-based, Fusarium graminearum; settings: strain T = F. graminearum 053; MIC-0; room temperature, 5 days
[21] = system: fungal strains (Candida spp., Cryptococcus spp., Aspergillus spp., Fusarium spp.); test: MIC determination, summary statements over the strain panel; assay type: cell-based; settings: for antifungal activity: Aspergillus spp., Fusarium spp. and most of the non-albicans Candida strains; for overall assessment as antifungals: panel of twenty fungal strains (Table 1)

SMILES: CC1CCC(C)[P+]1([Au-][Cl])c1ccccc1[P+]1([Au-][Cl])C(C)CCC1C [Compound 5, [1,2-bis[(2R,5R)-2,5-dimethylphospholano]benzene]digold(1)]
- MIC [1]: 3.9 µg/mL
- MIC (in parentheses) [1]: 5.1 µM
- MIC [2]: 31.3 (40.6) μg/mL
- MIC (in parentheses) [2]: 31.3 (40.6) μM
- MIC [3]: 15.6 µg/mL
- MIC (in parentheses) [3]: 20.2 µM
- MIC [4]: 7.8 µg/mL
- MIC (in parentheses) [4]: 10.1 µM
- MIC [5]: 15.6 µg/mL
- MIC (in parentheses) [5]: 20.2 µM
- MIC [6]: 15.6 µg/mL
- MIC (in parentheses) [6]: 20.2 µM
- MIC [7]: 7.8 µg/mL
- MIC (in parentheses) [7]: 10.1 µM
- MIC [8]: 15.6 µg/mL
- MIC (in parentheses) [8]: 20.2 µM
- MIC [9]: 31.3 µg/mL
- MIC (in parentheses) [9]: 40.6 µM
- MIC [10]: 15.6 µg/mL
- MIC (in parentheses) [10]: 20.2 µM
- MIC [11]: > 31.3 µg/mL
- MIC (in parentheses) [11]: > 40.6 µM
- MIC [12]: > 31.3 µg/mL
- MIC (in parentheses) [12]: > 40.6 µM
- MIC [13]: 0.12 µg/mL
- MIC (in parentheses) [13]: 0.2 µM
- MIC [14]: 15.6 µg/mL
- MIC (in parentheses) [14]: 20.2 µM
- MIC [15]: 7.8 µg/mL
- MIC (in parentheses) [15]: 10.1 µM
- MIC [16]: 7.8 µg/mL
- MIC (in parentheses) [16]: 10.1 µM
- MIC [17]: > 31.3 µg/mL
- MIC (in parentheses) [17]: > 40.6 µM
- MIC [18]: > 31.3 µg/mL
- MIC (in parentheses) [18]: > 40.6 µM
- MIC [19]: > 31.3 µg/mL
- MIC (in parentheses) [19]: > 40.6 µM
- MIC [20]: > 31.3 µg/mL
- MIC (in parentheses) [20]: > 40.6 µM
- antifungal activity [21]: inactive
- overall assessment as antifungals [21]: poor antifungals

SMILES: [Cl][Au-][P+](c1ccccc1)(c1ccccc1)c1ccccc1[P+]([Au-][Cl])(c1ccccc1)c1ccccc1 [Compound 1, [1,2-bis(diphenylphosphino)benzene]digold(I)]
- MIC [1]: 3.9 µg/mL
- MIC (in parentheses) [1]: 4.3 µM
- MIC [2]: 15.6 (17.1) μg/mL
- MIC (in parentheses) [2]: 15.6 (17.1) μM
- MIC [3]: 0.49 µg/mL
- MIC (in parentheses) [3]: 5.4 µM
- MIC [4]: 7.8 µg/mL
- MIC (in parentheses) [4]: 8.6 µM
- MIC [5]: 7.8 µg/mL
- MIC (in parentheses) [5]: 8.6 µM
- MIC [6]: 7.8 µg/mL
- MIC (in parentheses) [6]: 8.6 µM
- MIC [7]: 7.8 µg/mL
- MIC (in parentheses) [7]: 8.6 µM
- MIC [8]: 7.8 µg/mL
- MIC (in parentheses) [8]: 8.6 µM
- MIC [9]: 15.6 µg/mL
- MIC (in parentheses) [9]: 17.1 µM
- MIC [10]: 15.6 µg/mL
- MIC (in parentheses) [10]: 17.1 µM
- MIC [11]: > 31.3 µg/mL
- MIC (in parentheses) [11]: > 34.3 µM
- MIC [12]: > 31.3 µg/mL
- MIC (in parentheses) [12]: > 34.3 µM
- MIC [13]: 0.98 µg/mL
- MIC (in parentheses) [13]: 1.1 µM
- MIC [14]: 3.9 µg/mL
- MIC (in parentheses) [14]: 4.3 µM
- MIC [15]: 3.9 µg/mL
- MIC (in parentheses) [15]: 4.3 µM
- MIC [16]: 15.6 µg/mL
- MIC (in parentheses) [16]: 17.1 µM
- MIC [17]: > 31.3 µg/mL
- MIC (in parentheses) [17]: > 34.3 µM
- MIC [18]: > 31.3 µg/mL
- MIC (in parentheses) [18]: > 34.3 µM
- MIC [19]: > 31.3 µg/mL
- MIC (in parentheses) [19]: > 34.3 µM
- MIC [20]: > 31.3 µg/mL
- MIC (in parentheses) [20]: > 34.3 µM
- antifungal activity [21]: inactive
- overall assessment as antifungals [21]: poor antifungals

SMILES: [Cl-].c1ccc([P+]2(c3ccccc3)c3ccccc3[P+](c3ccccc3)(c3ccccc3)[Au-3]23[P+](c2ccccc2)(c2ccccc2)c2ccccc2[P+]3(c2ccccc2)c2ccccc2)cc1 [Compound 2, bis-[1,2-bis(diphenylphosphino)benzene]gold(1)]
- MIC [1]: 15.6 µg/mL
- MIC (in parentheses) [1]: 13.9 µM
- MIC [2]: 15.6 (13.9) μg/mL
- MIC (in parentheses) [2]: 15.6 (13.9) μM
- MIC [3]: 15.6 µg/mL
- MIC (in parentheses) [3]: 13.9 µM
- MIC [4]: 7.8 µg/mL
- MIC (in parentheses) [4]: 6.9 µM
- MIC [5]: 7.8 µg/mL
- MIC (in parentheses) [5]: 6.9 µM
- MIC [6]: 7.8 µg/mL
- MIC (in parentheses) [6]: 6.9 µM
- MIC [7]: 7.8 µg/mL
- MIC (in parentheses) [7]: 6.9 µM
- MIC [8]: 7.8 µg/mL
- MIC (in parentheses) [8]: 6.9 µM
- MIC [9]: 15.6 µg/mL
- MIC (in parentheses) [9]: 13.9 µM
- MIC [10]: 7.8 µg/mL
- MIC (in parentheses) [10]: 6.9 µM
- MIC [11]: > 31.3 µg/mL
- MIC (in parentheses) [11]: > 27.8 µM
- MIC [12]: > 31.3 µg/mL
- MIC (in parentheses) [12]: > 27.8 µM
- MIC [13]: 3.9 µg/mL
- MIC (in parentheses) [13]: 3.5 µM
- MIC [14]: 3.9 µg/mL
- MIC (in parentheses) [14]: 3.5 µM
- MIC [15]: 3.9 µg/mL
- MIC (in parentheses) [15]: 3.5 µM
- MIC [16]: 3.9 µg/mL
- MIC (in parentheses) [16]: 3.5 µM
- MIC [17]: > 31.3 µg/mL
- MIC (in parentheses) [17]: > 27.8 µM
- MIC [18]: > 31.3 µg/mL
- MIC (in parentheses) [18]: > 27.8 µM
- MIC [19]: > 31.3 µg/mL
- MIC (in parentheses) [19]: > 27.8 µM
- MIC [20]: 31.3 µg/mL
- MIC (in parentheses) [20]: 27.8 µM
- antifungal activity [21]: inactive
- overall assessment as antifungals [21]: poor antifungals
